Data from ChEMBL document CHEMBL1201862, “PubChem BioAssay data set” (2004).
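How tested: cells in 96-well plates exposed to compound for 48 hours at five concentrations. The concentration for 50% growth inhibition is given as GI50.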 Active and inactive are the calls of the source. Rule as the data show it: active = GI50 up to about 1.1 µM and inactive = higher.

What was measured:
Assay in all cases: NCI-60 cell line screen, 48 h
[1] = system: TK-10
[2] = system: A498
[3] = system: HCT-116
[4] = system: OVCAR-3
[5] = system: NCI-H460
[6] = system: NCI-H226
[7] = system: SF-539
[8] = system: SF-268
[9] = system: Malme-3M
[10] = system: HOP-92
[11] = system: RPMI-8226
[12] = system: HOP-18
[13] = system: SF-295
[14] = system: SNB-19
[15] = system: SK-MEL-28
[16] = system: NCI-H522
[17] = system: LOX IMVI
[18] = system: IGROV-1
[19] = system: U-251
[20] = system: SN12C
[21] = system: CAKI-1
[22] = system: M14
[23] = system: HL-60
[24] = system: SNB-78
[25] = system: OVCAR-8
[26] = system: DLD-1
[27] = system: SK-MEL-2
[28] = system: K562
[29] = system: ACHN
[30] = system: DMS-114
[31] = system: LXFL 529
[32] = system: HCT-15
[33] = system: XF498
[34] = system: A549
[35] = system: SW-620
[36] = system: DMS-273
[37] = system: UACC-257
[38] = system: KM-20L2
[39] = system: EKVX
[40] = system: KM12
[41] = system: HOP-62
[42] = system: UO-31
[43] = system: HCC 2998
[44] = system: OVCAR-5
[45] = system: OVCAR-4
[46] = system: COLO 205
[47] = system: NCI-H23
[48] = system: SNB-75
[49] = system: MOLT-4
[50] = system: UACC-62
[51] = system: HT-29
[52] = system: 786-0
[53] = system: SK-MEL-5
[54] = system: M19-MEL
[55] = system: CCRF-CEM
[56] = system: SK-OV-3
[57] = system: RXF 393

Measured: GI50

N[C@H](C(=O)O)[C@@H](Cl)CC(=O)O
> 100 µM: [32]
inactive: [1] > 100 µM | [2] > 100 µM | [3] > 100 µM | [4] > 100 µM | [5] > 100 µM | [6] > 100 µM | [7] > 100 µM | [8] > 100 µM | [9] > 100 µM | [10] > 100 µM | [11] > 100 µM | [12] > 100 µM | [13] > 100 µM | [14] > 100 µM | [15] > 100 µM | [16] > 100 µM | [17] > 100 µM | [18] > 100 µM | [19] > 100 µM | [20] > 100 µM | [21] > 100 µM | [22] > 100 µM | [23] > 100 µM | [24] > 100 µM | [25] > 100 µM | [26] > 100 µM | [27] > 100 µM | [28] > 100 µM | [29] > 100 µM | [30] > 100 µM | [31] > 100 µM | [33] > 100 µM | [34] > 100 µM | [35] > 100 µM | [36] > 100 µM | [37] > 100 µM | [38] > 100 µM | [39] > 100 µM | [40] > 100 µM | [41] > 100 µM | [42] > 100 µM | [43] > 100 µM | [44] > 100 µM | [45] > 100 µM | [46] > 100 µM | [47] > 100 µM | [48] > 100 µM | [49] > 100 µM | [50] > 100 µM | [51] > 100 µM | [52] > 100 µM | [53] > 100 µM | [54] > 100 µM | [55] > 100 µM | [56] > 100 µM | [57] > 100 µM

O=C(OCCCl)C1OC(n2cc(F)c(=O)[nH]c2=O)CC1O (configuration not stated)
> 100 µM: [32]
inactive: [1] > 100 µM | [2] > 100 µM | [3] > 100 µM | [4] > 100 µM | [5] 92 µM | [6] > 100 µM | [7] > 100 µM | [8] > 100 µM | [9] > 100 µM | [10] 57.8 µM | [11] > 100 µM | [12] > 100 µM | [13] > 100 µM | [14] > 100 µM | [15] > 100 µM | [16] > 100 µM | [17] > 100 µM | [18] > 100 µM | [19] > 100 µM | [20] > 100 µM | [22] > 100 µM | [23] > 100 µM | [24] > 100 µM | [25] > 100 µM | [26] > 100 µM | [27] > 100 µM | [28] > 100 µM | [29] > 100 µM | [30] > 100 µM | [31] > 100 µM | [33] > 100 µM | [34] > 100 µM | [35] > 100 µM | [37] > 100 µM | [38] > 100 µM | [39] > 100 µM | [40] > 100 µM | [41] > 100 µM | [42] > 100 µM | [43] 27.7 µM | [44] > 100 µM | [45] > 100 µM | [46] > 100 µM | [47] > 100 µM | [48] > 100 µM | [49] > 100 µM | [50] > 100 µM | [51] > 100 µM | [52] > 100 µM | [53] > 100 µM | [54] > 100 µM | [55] > 100 µM | [56] > 100 µM | [57] > 100 µM
